# Patent US20210283073A1, “AGENT FOR INHIBITING RECURRENCE OF HEM[…] PATIENTS WHO HAVE UNDERGONE HEMATOPOIETIC STEM CELL TRANSPLANTATION” (Priothera Limited, priority 2018, published 2021)
# Where two headings read alike, the source gives them in different places.
# Test system: patients who have undergone hematopoietic stem cell transplantation for the treatment of hematological malignancies
# Conditions: for number of days of recurrence of hematological malignancies / number of days of death: days from allogeneic HSCT; for Recurrence rate / Survival rate: one year after allogeneic HSCT
# Protocol: The clinical tests were performed as described below
# The following four types of immunosuppressants were used in the clinical tests. • 2-Amino-2-[4-(3-benzyloxyphenylthio)-2-chlorophenyl] ethyl-propane-1,3-diol hydrochloride (prepared as capsules containing 0.5, 1, 2, 3, 4, or 5 mg in terms of 2-amino-2-[4-(3-benzyloxyphenylthio)-2-chlorophenyl] ethyl-propane-1,3-diol)) • Methotrexate • Cyclosporin A • Tacrolimus
# 23 patients participated in the clinical tests.
# The clinical tests was carried out according to the following schedule. However, changes were made appropriately depending on the condition of the patient and the like.
# A: Screening (from the −50th day to the −2nd day), Baseline (the −1st day)
# B: Treatment with 2-amino-2-[4-(3-benzyloxyphenylthio)-2-chlorophenyl] ethyl-propane-1,3-diol hydrochloride (from the 1st day to the 111th day)
# B′: Treatment with other immunosuppressants (according to hospital standards, and the like)
# C: Conditioning regimen (from the 2nd day to the 10th day)
# D: Allogeneic hematopoietic stem cell transplantation (the 11th day)
# E: Follow-up (from the 12th day to the 376th day), additional follow-up (from the 377th day)
# A predetermined amount of 2-amino-2-[4-(3-benzyloxyphenylthio)-2-chlorophenyl] ethyl-propane-1,3-diol hydrochloride was administered to the patients once a day, as well as, other immunosuppressants were administered to the patients on a dosing schedule and dosage according to the hospital standards and the like. The daily dosage of 2-amino-2-[4-(3-benzyloxyphenylthio)-2-chlorophenyl] ethyl-propane-1,3-diol hydrochloride administered to each patient (value in terms of 2-amino-2-[4-(3-benzyloxyphenylthio)-2-chlorophenyl] ethyl-propane-1,3-diol, the same is applied to the descriptions hereinafter), the administration period of time, and the types of the other immunosuppressants are shown in Table 2 (KRP: 2-amino-2-[4-(3-benzyloxyphenylthio)-2-chlorophenyl] ethyl-propane-1,3-diol hydrochloride, MTX: methotrexate, CyA: cyclosporin A, and Tac: tacrolimus).
# The conditions of patients who underwent allogeneic hematopoietic stem cell transplantation were subjected to following up for a certain period of time. In the table, the follow-up period, the number of days of recurrence of hematological malignancies and the number of days of death represent the number of days passing from the day when allogeneic hematopoietic stem cell transplantation was performed. The survival rate and recurrence rate were calculated in accordance with the Kaplan-Meier method.
# [1] = Patient No. 1, Multiple myeloma, KRP 3 mg + MTX + CyA, KRP 34 days, follow-up 749 days
# [2] = Patient No. 2, Acute lymphocytic leukemia, KRP 3 mg + MTX + CyA, KRP 108 days, follow-up 731 days
# [3] = Patient No. 3, Acute lymphocytic leukemia, KRP 3 mg + MTX + CyA, KRP 107 days, follow-up 734 days
# [4] = Patient No. 4, Myelodysplasia syndrome, KRP 3 mg + MTX + CyA, KRP 35 days, follow-up 532 days
# [5] = Patient No. 4, Myelodysplasia syndrome, KRP 3 mg + MTX + CyA, KRP 35 days
# [6] = Patient No. 5, B-cell lymphoma, KRP 3 mg + MTX + CyA, KRP 111 days, follow-up 819 days
# [7] = Patient No. 6, Acute myeloid leukemia, KRP 3 mg + MTX + CyA, KRP 107 days, follow-up 347 days
# [8] = Patient No. 7, Acute lymphocytic leukemia, KRP 3 mg + MTX + CyA, KRP 98 days, follow-up 727 days
# [9] = Patient No. 8, Myelodysplasia syndrome, KRP 3 mg + MTX + CyA, KRP 111 days, follow-up 704 days
# [10] = Patient No. 9, Acute myeloid leukemia, KRP 3 mg + MTX + CyA, KRP 86 days, follow-up 728 days
# [11] = Patient No. 10, Acute myeloid leukemia, KRP 3 mg + MTX + CyA, KRP 111 days, follow-up 876 days
# [12] = Patient No. 10, Acute myeloid leukemia, KRP 3 mg + MTX + CyA, KRP 111 days
# [13] = Patient No. 11, Chronic myeloid leukemia, KRP 1 mg + MTX + CyA, KRP 111 days, follow-up 617 days
# [14] = Patient No. 12, Myelodysplasia syndrome, KRP 3 mg + MTX + Tac, KRP 79 days, follow-up 110 days
# [15] = Patient No. 12, Myelodysplasia syndrome, KRP 3 mg + MTX + Tac, KRP 79 days
# [16] = Patient No. 13, Acute lymphocytic leukemia, KRP 1 mg + MTX + CyA, KRP 43 days, follow-up 326 days
# [17] = Patient No. 13, Acute lymphocytic leukemia, KRP 1 mg + MTX + CyA, KRP 43 days
# [18] = Patient No. 14, Acute myeloid leukemia, KRP 1 mg + MTX + CyA, KRP 111 days, follow-up 669 days
# [19] = Patient No. 15, Chronic myeloid leukemia, KRP 3 mg + MTX + Tac, KRP 111 days, follow-up 554 days
# [20] = Patient No. 16, Acute myeloid leukemia, KRP 3 mg + MTX + Tac, KRP 117 days, follow-up 375 days
# [21] = Patient No. 17, Acute myeloid leukemia, KRP 3 mg + MTX + Tac, KRP 111 days, follow-up 246 days
# [22] = Patient No. 18, Myelofibrosis, KRP 3 mg + MTX + Tac, KRP 111 days, follow-up 310 days
# [23] = Patient No. 18, Myelofibrosis, KRP 3 mg + MTX + Tac, KRP 111 days
# [24] = Patient No. 19, Acute myeloid leukemia, KRP 1 mg + MTX + CyA, KRP 24 days, follow-up 99 days
# [25] = Patient No. 20, Chronic myeloid leukemia, KRP 1 mg + MTX + CyA, KRP 111 days, follow-up 193 days
# [26] = Patient No. 21, Non-hodgkin lymphoma/Hodgkin disease, KRP 3 mg + MTX + Tac, KRP 62 days, follow-up 79 days
# [27] = Patient No. 21, Non-hodgkin lymphoma/Hodgkin disease, KRP 3 mg + MTX + Tac, KRP 62 days
# [28] = Patient No. 22, Non-hodgkin lymphoma/Hodgkin disease, KRP 3 mg + MTX + Tac, KRP 107 days, follow-up 264 days
# [29] = Patient No. 22, Non-hodgkin lymphoma/Hodgkin disease, KRP 3 mg + MTX + Tac, KRP 107 days
# [30] = Patient No. 23, Chronic myeloid leukemia, KRP 1 mg + MTX + CyA, KRP 111 days, follow-up 264 days
# [31] = all 23 patients, KRP 1 or 3 mg/day + MTX + CyA or Tac, Kaplan-Meier
# [32] = Chronic myeloid leukemia, 4 patients
# [33] = KRP 1 mg + MTX + CyA, 6 patients
# [34] = KRP 3 mg + MTX + CyA, 10 patients, hydrochloride
# [35] = KRP 3 mg + MTX + CyA, 10 patients, listed as 2-amino-2-[4-(3-benzyloxyphenylthio)-2-chlorophenyl] ethyl-propane-1,3-diol, hydrochloride
# [36] = KRP 3 mg + MTX + Tac, 7 patients
# [37] = Myelodysplasia syndrome, 3 patients
# [38] = Non-hodgkin lymphoma/Hodgkin disease, 2 patients
# [39] = administration period 80 days or more, 17 patients, hydrochloride
# [40] = administration period 80 days or more, 17 patients, listed as 2-amino-2-[4-(3-benzyloxyphenylthio)-2-chlorophenyl] ethyl-propane-1,3-diol, hydrochloride
# [41] = administration period 100 days or more, 15 patients, hydrochloride
# [42] = administration period 100 days or more, 15 patients, listed as 2-amino-2-[4-(3-benzyloxyphenylthio)-2-chlorophenyl] ethyl-propane-1,3-diol, hydrochloride
compound,measurement,setting,value
"Cl.NC(CO)(CO)CCc1ccc(Sc2cccc(OCc3ccccc3)c2)cc1Cl [KRP, 2-amino-2-[4-(3-benzyloxyphenylthio)-2-chlorophenyl] ethyl-propane-1,3-diol hydrochloride]",Alive/dead,[1],Alive
same,Yes/No of recurrence of hematological malignancy,[1],Yes
same,number of days of recurrence of hematological malignancies,"Patient No. 1, Multiple myeloma, KRP 3 mg + MTX + CyA, KRP 34 days",(749th day)
same,Alive/dead,[2],Alive
same,Yes/No of recurrence of hematological malignancy,[2],No
same,Alive/dead,[3],Alive
same,Yes/No of recurrence of hematological malignancy,[3],No
same,Alive/dead,[4],Dead
same,Yes/No of recurrence of hematological malignancy,[4],Yes
same,number of days of death,[5],(532nd day)
same,number of days of recurrence of hematological malignancies,[5],(287th day)
same,Alive/dead,[6],Alive
same,Yes/No of recurrence of hematological malignancy,[6],No
same,Alive/dead,[7],Alive
same,Yes/No of recurrence of hematological malignancy,[7],No
same,Alive/dead,[8],Alive
same,Yes/No of recurrence of hematological malignancy,[8],No
same,Alive/dead,[9],Alive
same,Yes/No of recurrence of hematological malignancy,[9],No
same,Alive/dead,[10],Alive
same,Yes/No of recurrence of hematological malignancy,[10],Yes
same,number of days of recurrence of hematological malignancies,"Patient No. 9, Acute myeloid leukemia, KRP 3 mg + MTX + CyA, KRP 86 days",(102nd day)
same,Alive/dead,[11],Dead
same,Yes/No of recurrence of hematological malignancy,[11],Yes
same,number of days of death,[12],(876th day)
same,number of days of recurrence of hematological malignancies,[12],(757th day)
same,Alive/dead,[13],Alive
same,Yes/No of recurrence of hematological malignancy,[13],No
same,Alive/dead,[14],Dead
same,Yes/No of recurrence of hematological malignancy,[14],Yes
same,number of days of death,[15],(110th day)
same,number of days of recurrence of hematological malignancies,[15],(110th day)
same,Alive/dead,[16],Dead
same,Yes/No of recurrence of hematological malignancy,[16],Yes
same,number of days of death,[17],(326th day)
same,number of days of recurrence of hematological malignancies,[17],(252nd day)
same,Alive/dead,[18],Alive
same,Yes/No of recurrence of hematological malignancy,[18],No
same,Alive/dead,[19],Alive
same,Yes/No of recurrence of hematological malignancy,[19],No
same,Alive/dead,[20],Alive
same,Yes/No of recurrence of hematological malignancy,[20],No
same,Alive/dead,[21],Alive
same,Yes/No of recurrence of hematological malignancy,[21],Yes
same,number of days of recurrence of hematological malignancies,"Patient No. 17, Acute myeloid leukemia, KRP 3 mg + MTX + Tac, KRP 111 days",(98th day)
same,Alive/dead,[22],Dead
same,Yes/No of recurrence of hematological malignancy,[22],Yes
same,number of days of death,[23],(310th day
same,number of days of recurrence of hematological malignancies,[23],(105th day)
same,Alive/dead,[24],Alive
same,Yes/No of recurrence of hematological malignancy,[24],Yes
same,number of days of recurrence of hematological malignancies,"Patient No. 19, Acute myeloid leukemia, KRP 1 mg + MTX + CyA, KRP 24 days",(77th day)
same,Alive/dead,[25],Alive
same,Yes/No of recurrence of hematological malignancy,[25],No
same,Alive/dead,[26],Dead
same,Yes/No of recurrence of hematological malignancy,[26],Yes
same,number of days of death,[27],(79th day
same,number of days of recurrence of hematological malignancies,[27],(49th day)
same,Alive/dead,[28],Dead
same,Yes/No of recurrence of hematological malignancy,[28],Yes
same,number of days of death,[29],(264th day
same,number of days of recurrence of hematological malignancies,[29],(121st day)
same,Alive/dead,[30],Alive
same,Yes/No of recurrence of hematological malignancy,[30],No
same,recurrence rate of hematologic malignancy one year after allogeneic hematopoietic stem cell transplantation,[31],40%
same,survival rate of the patients one year after allogeneic hematopoietic stem cell transplantation,[31],75%
same,Recurrence rate,"Acute lymphocytic leukemia, 4 patients",25%
same,Survival rate,"Acute lymphocytic leukemia, 4 patients, hydrochloride",75%
same,Survival rate,"Acute lymphocytic leukemia, 4 patients, listed as 2-amino-2-[4-(3-benzyloxyphenylthio)-2-chlorophenyl] ethyl-propane-1,3-diol, hydrochloride",75%
same,Recurrence rate,"Acute myeloid leukemia, 7 patients",43%
same,Survival rate,"Acute myeloid leukemia, 7 patients, hydrochloride",100%
same,Survival rate,"Acute myeloid leukemia, 7 patients, listed as 2-amino-2-[4-(3-benzyloxyphenylthio)-2-chlorophenyl] ethyl-propane-1,3-diol, hydrochloride",100%
same,Recurrence rate,"B-cell lymphoma, 1 patient",0%
same,Survival rate,"B-cell lymphoma, 1 patient",100%
same,Recurrence rate,[32],0%
same,Survival rate,[32],100%
same,Recurrence rate,[33],38%
same,Survival rate,[33],67%
same,Recurrence rate,[34],20%
same,Survival rate,[34],100%
same,Recurrence rate,[35],20%
same,Survival rate,[35],100%
same,Recurrence rate,[36],71%
same,Survival rate,[36],36%
same,Recurrence rate,"Multiple myeloma, 1 patient",0%
same,Survival rate,"Multiple myeloma, 1 patient",100%
same,Recurrence rate,[37],67%
same,Survival rate,[37],67%
same,Recurrence rate,"Myelofibrosis, 1 patient",100%
same,Survival rate,"Myelofibrosis, 1 patient",0%
same,Recurrence rate,[38],100%
same,Survival rate,[38],0%
same,Recurrence rate,"administration period 60 days or more, 19 patients",32%
same,Survival rate,"administration period 60 days or more, 19 patients, hydrochloride",77%
same,Survival rate,"administration period 60 days or more, 19 patients, listed as 2-amino-2-[4-(3-benzyloxyphenylthio)-2-chlorophenyl] ethyl-propane-1,3-diol, hydrochloride",77%
same,Recurrence rate,[39],24%
same,Survival rate,[39],86%
same,Recurrence rate,[40],24%
same,Survival rate,[40],86%
same,Recurrence rate,[41],20%
same,Survival rate,[41],84%
same,Recurrence rate,[42],20%
same,Survival rate,[42],84%
